The target of this experiment is T1, PLD (phospholipase D).
T1 construct: fused on or other part: N-terminal polyhistidine tag (pFastBac HTc) on either enzyme
Put plainly: In vitro assay of PLD activity ([3H]-choline release from labelled PC). Format: biochemical, human. The note with it: Table 1, monocyclic thiazolidinones of Formula I, PLD isoform not stated; for pIC50: read-out: IC50. The protocol:
Recombinant PLD1 and PLD2—Human PLD1 and PLD2 were isolated from Sf9 insect cells that had been infected with recombinant baculovirus vector, pFastBac™HTc vector (Life Technologies, Gaithersburg, Md.), containing PLD1 or PLD2 cDNAs.
PLD1 activity was assayed by measuring the generation of [^3H]-choline from [choline-methyl^3H](16:0, 16:0)PC.
The assay procedure for PLD2 was similar to that for PLD1, with the exception that arf1, PKC-α, and GTPγS were omitted from the reaction mixture. After addition of enzymes, the reactions were incubated for 1 hour at room temperature. Twenty microliters of 12% trichloroacetic acid (TCA) then were added to each sample, to stop the reaction and to precipitate the unreacted [choline-methyl^3H](16:0, 16:0)PC. Thereafter, the samples were passed through 0.65 μm Millipore 96 well filter plates to removed the excess [choline-methyl^3H](16:0, 16:0)PC. For each sample the filtrate (50 μl), which contained the [^3H]-choline released by PLD cleavage of PC, was analyzed using a TopCount™ Liquid Scintillation Counter, a product of Packard (Meriden, Conn.).

pIC50: −log10 of the molar value. Where two headings read alike, the source gives them in different places. A value given as a limit tells only on which side of the number the result lay.

What is called pIC50 is −log10 of the IC50, conventionally taken in molar units.

With `O=C(O)CN1C(=O)/C(=C\c2ccc(-c3ccccc3)o2)SC1=S` [Compound 1, [4-oxo-5-(5-phenyl-furan-2-ylmethylene)-2-thioxo-thiazolidin-3-yl]-acetic acid], the negative logarithm of the IC50 (pIC50) is 5.40. The same measure, in the same setting: the same measure for `O=C(O)CN1C(=O)/C(=C\c2ccc(-c3cccc(Cl)c3)o2)SC1=S` [Compound 3, {5-[5-(3-chloro-phenyl)-furan-2-ylmethylene]-4-oxo-2-thioxo-thiazolidin-3-yl}-acetic acid]: 5.70. For the compound `O=C(O)CCN1C(=O)/C(=C/c2ccc(-c3ccccc3Cl)o2)SC1=S` [Compound 4, 3-{5-[5-(2-chloro-phenyl)-furan-2-ylmethylene]-4-oxo-2-thioxo-thiazolidin-3-yl}-propionic acid], the pIC50 is 6.10.

Turning to `O=C(O)CN1C(=O)/C(=C\c2ccc(-c3ccccc3Cl)o2)SC1=S` [Compound 5, {5-[5-(2-chloro-phenyl)-furan-2-ylmethylene]-4-oxo-2-thioxo-thiazolidin-3-yl}-acetic acid], the pIC50 was 5.74. Still for that read-out and setting: then `O=C(O)c1cccc(-c2ccc(/C=C3/SC(=S)N(c4cccc(Cl)c4)C3=O)o2)c1` [Compound 6, 3-{5-[3-(3-chloro-phenyl)-4-oxo-2-thioxo-thiazolidin-5-ylidenemethyl]-furan-2-yl}-benzoic acid], with 6.40. Still for that read-out and setting: the same measure for `COc1ccc(N2C(=O)/C(=C\c3ccc(-c4cccc(C(=O)O)c4)o3)SC2=S)cc1` [Compound 7, 3-{5-[3-(4-methoxy-phenyl)-4-oxo-2-thioxo-thiazolidin-5-ylidenemethyl]-furan-2-yl}-benzoic acid]: 5.89; for `O=C(O)c1ccc(-c2ccc(/C=C3\SC(=S)N(c4cccc(C(F)(F)F)c4)C3=O)o2)cc1` [Compound 8, 4-{5-[4-oxo-2-thioxo-3-(3-trifluoromethyl-phenyl)-thiazolidin-5-ylidenemethyl]-furan-2-yl}-benzoic acid]: 5.85. On the same count and under the same terms, then `CCN1C(=O)/C(=C\c2ccc(-c3cccc(C(=O)O)c3)o2)SC1=S` [Compound 9, 3-[5-(3-ethyl-4-oxo-2-thioxo-thiazolidin-5-ylidenemethyl)-furan-2-yl]-benzoic acid], with 6.22; and `Cc1cccc(N2C(=O)/C(=C/c3ccc(-c4ccc(C(=O)O)cc4)o3)SC2=S)c1` [Compound 10, 4-[5-(4-oxo-2-thioxo-3-m-tolyl-thiazolidin-5-ylidenemethyl)-furan-2-yl]-benzoic acid], with 6.22. `Cc1cccc(N2C(=O)/C(=C/c3ccc(-c4cccc(C(=O)O)c4)o3)SC2=S)c1` [Compound 11, 3-[5-(4-oxo-2-thioxo-3-m-tolyl-thiazolidin-5-ylidenemethyl)-furan-2-yl]-benzoic acid]: the pIC50 is more than 6.40.

For `COc1ccc(N2C(=O)/C(=C\c3ccc(-c4ccc(C(=O)O)cc4)o3)SC2=S)cc1` [Compound 12, 4-{5[3-(4-methoxy-phenyl)-4-oxo-2-thioxo-thiazolidin-5-ylidenemethyl]-furan-2-yl}-benzoic acid], the pIC50 is more than 6.40. Turning to `O=C(O)c1ccc(-c2ccc(/C=C3\SC(=S)N(c4cccc(F)c4)C3=O)o2)cc1` [Compound 13, 4-{5-[3-(3-fluoro-phenyl)-4-oxo-2-thioxo-thiazolidin-5-ylidenemethyl]-furan-2-yl}-benzoic acid], the pIC50 is 5.77. Regarding `O=C(O)c1ccc(-c2ccc(/C=C3\SC(=S)N(Cc4ccccc4)C3=O)o2)cc1` [Compound 14, 4-[5-(3-benzyl-4-oxo-2-thioxo-thiazolidin-5-ylidenemethyl)-furan-2-yl]-benzoic acid], the pIC50 is more than 6.40. Same read-out and setting: then `Cc1ccc(N2C(=O)/C(=C/c3ccc(-c4ccc(C(=O)O)cc4)o3)SC2=S)c(C)c1` [Compound 15, 4-{5-[3-(2,4-dimethyl-phenyl)-4-oxo-2-thioxo-thiazolidin-5-ylidenemethyl]-furan-2-yl}-benzoic acid], with more than 6.40; and `O=C(O)c1cccc(-c2ccc(/C=C3\SC(=S)N(Cc4ccccc4)C3=O)o2)c1` [Compound 16, 3-[5-(3-benzyl-4-oxo-2-thioxo-thiazolidin-5-ylidenemethyl)-furan-2-yl]-benzoic acid], with more than 6.05; and `O=C(O)c1ccc(-c2ccc(/C=C3\SC(=S)N(C4CCCCC4)C3=O)o2)cc1` [Compound 17, 4-[5-(3-cyclohexyl-4-oxo-2-thioxo-thiazolidin-5-ylidenemethyl)-furan-2-yl]-benzoic acid], with 6.30. Still for that read-out and setting: the same measure for `O=C(O)c1cccc(-c2ccc(/C=C3\SC(=S)N(c4cccc(F)c4)C3=O)o2)c1` [Compound 18, 3-{5-[3-(3-fluoro-phenyl)-4-oxo-2-thioxo-thiazolidin-5-ylidenemethyl]-furan-2-yl}-benzoic acid]: more than 6.40. Same read-out and setting: then `Cc1ccc(N2C(=O)/C(=C/c3ccc(-c4cccc(C(=O)O)c4)o3)SC2=S)c(C)c1` [Compound 19, 3-{5-[3-(2,4-dimethyl-phenyl)-4-oxo-2-thioxo-thiazolidin-5-ylidenemethyl]-furan-2-yl}-benzoic acid], with more than 6.40; and `C=CCN1C(=O)/C(=C\c2ccc(-c3cccc(C(=O)O)c3)o2)SC1=S` [Compound 20, 3-[5-(3-allyl-4-oxo-2-thioxo-thiazolidin-5-ylidenemethyl)-furan-2-yl]-benzoic acid], with 6.30. With `O=C(O)CCCN1C(=O)/C(=C/c2ccc(-c3ccc(Cl)c(Cl)c3)o2)SC1=S` [Compound 21, 4-{5-[5-(3,4-dichloro-phenyl)-furan-2-ylidenemethyl]-4-oxo-2-thioxo-thiazolidin-3-yl}-butyric acid], the pIC50 is 6.40. On to `O=C(O)CCCN1C(=O)/C(=C/c2ccc(-c3ccc(O)c(O)c3)o2)SC1=S` [Compound 22, 4-{5-[5-(3,4-dihydroxy-phenyl)-furan-2-ylidenemethyl]-4-oxo-2-thioxo-thiazolidin-3-yl}-butyric acid], for which the pIC50 is 5.80. On to `O=C(O)c1ccc(N2C(=O)/C(=C/C=C/c3ccccc3)SC2=S)cc1` [Compound 23, 4-[4-oxo-5-(3-phenyl-allylidene)-2-thioxo-thiazolidin-3-yl]-benzoic acid], for which the pIC50 was 5.05. Still for that read-out and setting: then `O=C(O)c1cccc(-c2ccc(/C=C3\SC(=S)N(C4CCCCC4)C3=O)o2)c1` [Compound 24, 3-[5-(3-Cyclohexyl-4-oxo-2-thioxo-thiazolidin-5-ylidenemethyl)-furan-2-yl]-benzoic acid], with more than 6.40; and `COC(=O)c1ccc(-c2ccc(/C=C3\SC(=S)N(Cc4cc(OC)c(OC)c(OC)c4)C3=O)o2)cc1` [Compound 26, 4-{5-[4-oxo-2-thioxo-3-(3,4,5-trimethoxy-benzyl)-thiazolidin-5-ylidenemethyl]-furan-2-yl}-benzoic acid methyl ester], with 5.52; and `COc1cc(CN2C(=O)/C(=C/c3ccc(-c4ccc(C(=O)O)cc4)o3)SC2=S)cc(OC)c1OC` [Compound 27, 4-{5-[4-oxo-2-thioxo-3-(3,4,5-trimethoxy-benzyl)-thiazolidin-5-ylidenemethyl]-furan-2-yl}-benzoic acid], with 5.52. As for `COC(=O)c1ccc(-c2ccc(/C=C3\SC(=S)N(CCCN4CCOCC4)C3=O)o2)cc1` [Compound 28, 4-{5-[3-(3-morpholin-4-yl-propyl)-4-oxo-2-thioxo-thiazolidin-5-ylidenemethyl]-furan-2-yl}-benzoic acid methyl ester], the pIC50 is 5.82. As to `O=C(O)c1ccc(-c2ccc(/C=C3\SC(=S)N(c4ccccc4)C3=O)o2)cc1` [Compound 29, 4-[5-(4-oxo-3-phenyl-2-thioxo-thiazolidin-5-ylidenemethyl)-furan-2-yl]-benzoic acid], the pIC50 is 5.40. Same read-out and setting: the same measure for `COC(=O)c1ccc(-c2ccc(/C=C3\SC(=S)N(Cc4ccccc4)C3=O)o2)cc1` [Compound 30, 4-[5-(3-benzyl-4-oxo-2-thioxo-thiazolidin-5-ylidenemethyl)-furan-2-yl]-benzoic acid methyl ester]: 4.80. `COC(=O)c1ccc(-c2ccc(/C=C3\SC(=O)NC3=O)o2)cc1` [Compound 31, 4-[5-(2,4-dioxo-thiazolidin-5-ylidenemethyl)-furan-2-yl]-benzoic acid methyl ester]: the IC50 result is given as “less active”. On the same count and under the same terms, the same measure for `COC(=O)c1ccc(-c2ccc(/C=C3\SC(=O)N(CC4CC4)C3=O)o2)cc1` [Compound 33, 4-[5-(3-cyclopropylmethyl-2,4-dioxo-thiazolidin-5-ylidenemethyl)-furan-2-yl]-benzoic acid methyl ester]: “less active”.

`O=C(O)c1ccc(-c2ccc(/C=C3\SC(=S)N(Cc4ccccc4C(F)(F)F)C3=O)o2)cc1` [Compound 34, 4-{5-[4-oxo-2-thioxo-3-(2-trifluoromethyl-benzyl)-thiazolidin-5-ylidenemethyl]-furan-2-yl}-benzoic acid]: the pIC50 is 5.82.

As for `Cc1ccc(CN2C(=O)/C(=C/c3ccc(-c4ccc(C(=O)O)cc4)o3)SC2=S)cc1` [Compound 35, 4-{5-[3-(4-methyl-benzyl)-4-oxo-2-thioxo-thiazolidin-5-ylidenemethyl]-furan-2-yl}-benzoic acid], the negative-log IC50 (pIC50) is 5.70. Turning to `COC(=O)c1ccc(-c2ccc(/C=C3\SC(=S)N(Cc4cc(OC)c(OC)c(OC)c4)C3=O)s2)cc1` [Compound 36, 4-{5-[4-oxo-2-thioxo-3-(3,4,5-trimethoxy-benzyl)-thiazolidin-5-ylidenemethyl]-thiophen-2-yl}-benzoic acid methyl ester], the IC50 result is recorded as “less active”.

The values are drawn from patent US20040002526A1, “Phospholipase D inhibitors and uses thereof” (Cell Therapeutics, Inc., priority 2002, published 2004).
